{
  "source": "paper PMC4473678",
  "about": "“Swedish mutant APP-based BACE1 binding site peptide reduces APP β-cleavage and cerebral Aβ levels in Alzheimer’s mice” (Scientific Reports, 2015)",
  "key": {"[1]": {"system": "recombinant BACE1 protein", "test": "WB of BACE1-mediated cleavage of biotin-labeled peptide, cell-free", "format": "biochemical", "details": "10 μg biotin-labeled TAT-APPsweBBP with 10 μL recombinant BACE1 (1.0 U/mL), 4 h, 37 °C", "method": "In order to confirm that APPsweBBP containing the β-cleavage site could bind to and be consequently proteolyzed by BACE1, 10 μg of biotin-labeled TAT-APPsweBBP was incubated with or without 10 μL of recombinant BACE1 protein (1.0 U/mL) in BACE1 reaction buffer for 4 h at 37 °C and then subjected to WB analysis as described previously. In addition, we performed immunoprecipitation (IP) and WB analyses of this mixture with anti-BACE1 and anti-biotin antibodies to confirm that TAT-APPsweBBP, but not TAT, specifically binds to BACE1."}, "CHO/APPwt cells": {"system": "CHO/APPwt cells", "test": "APP processing in CHO/APPwt cells (WB, ELISA)", "format": "cell-based, Chinese hamster", "details": "0 to 20 μM, 24 h", "method": "(§1) Chinese hamster ovary (CHO) cells engineered to express human APPwt (CHO/APPwt cells) or human APPswe (CHO/APPswe cells) were kindly provided by Dr. Stefanie Hahn and Dr. Sascha Weggen (University of Heinrich Heine, Dusseldorf, Germany). As described in our recent report, these cells were cultured in Dulbecco’s modified Eagle’s medium with 10% fetal bovine serum, 1 mM sodium pyruvate and 100 U/mL of penicillin/streptomycin.\n(§2) Following application of blocking buffer, these cells were stained with mouse anti-BACE1 and anti-biotin antibodies overnight at 4 °C for immunocytochemical analysis. In order to determine the inhibitory effects of TAT-APPsweBBP on BACE1-mediated APP β-cleavage and subsequent Aβ production, both CHO/APPwt and CHO/APPswe cells were plated in 24 well-plates (3×10^5/well) and treated with TAT-APPsweBBP at 0 to 20 μM for 24 h. The cultured media were collected for Aβ and sAPPα analysis by ELISA and WB. Cell lysates were also prepared for analysis of APP amyloidogenic processing by WB.\n(§3) WB analysis was performed as previously described. Briefly, the proteins from the various cell-free suspensions, cell lysates and brain homogenates were electrophoretically separated using 10% bicine/tris gel (8 M urea) for proteins less than 5 kD or 10% tricine/tris gels for larger proteins. Electrophoresed proteins were transferred to polyvinylidene difluoride membranes (Bio-Rad, Richmond, CA), washed and blocked for 2 h at room temperature in Tris-buffered saline containing 5% (w/v) nonfat dry milk (TBS/NFDM). After blocking, membranes were hybridized for 2 h with various primary antibodies, washed and incubated for 1 h with the appropriate HRP-conjugated secondary antibody in TBS/NFDM. Blots were developed using the luminol reagent (Thermo Fisher Scientific, Waltham, MA).\n(§4) Mouse brains were homogenized in ice-cold lysis buffer for 30 s using a Minilys tissue homogenizer (Bertin Technologies, Montigny-le-Bretonneux, France) set at high speed, allowed to stand for 15 min at 4 °C, and centrifuged at 15000 rpm for 30 min. Soluble Aβ1−40/42 species and sAPPα were directly detected in cultured cell media or brain homogenates using the Aβ1−40/42 (Invitrogen) and sAPPα ELISA kits (IBL-America, Minneapolis, MN). Detergent-insoluble total […] species were detected in brain by extracting pellets in 5 M guanidine HCl buffer, followed by a 1:20 dilution in lysis buffer."}, "CHO/APPswe cells": {"system": "CHO/APPswe cells", "test": "APP processing in CHO/APPswe cells (WB, ELISA)", "format": "cell-based, Chinese hamster", "details": "0 to 20 μM, 24 h", "method": "as §1, §2, §3, §4"}, "[2]": {"system": "cortex and hippocampus of 5XFAD mice", "test": "Extracellular and intracellular peptide levels in brain (WB)", "format": "in vivo, mouse", "details": "i.p., *P < 0.05, **P < 0.01, listed as TAT-APPsweBBP", "method": "For specific extraction of extracellular versus intracellular proteins, hemibrains were harvested and placed in 500 μl of solution containing 50 mM Tris-HCl, pH 7.6, 0.01% NP-40, 150 mM NaCl, 2 mM EDTA, 0.1% SDS, 1 mM phenylmethylsulfonyl fluoride, and protease inhibitor cocktail (Sigma) as previously describe. Soluble, extracellular proteins were collected from mechanically homogenized lysates after centrifugation for 5 min at 3000 rpm. Cytoplasmic proteins were extracted from cell pellets mechanically dissociated with a micropipettor in 500 μl of TNT buffer (50 mM Tris-HCl, pH 7.6, 150 mM NaCl, and 0.1% Triton X-100) after centrifugation for 90 min at 13,000 rpm. Insoluble material was incubated with 20 μl of 70% formic acid, mechanically dissociated with a micropipette, gently agitated for 1 h, and buffered with 380 μl of 1 M Tris-HCl, pH 8.0. Samples were centrifuged for 90 min at 13,000 rpm, and supernatants were collected for analysis.\nWB analysis was performed as previously described. Briefly, the proteins from the various cell-free suspensions, cell lysates and brain homogenates were electrophoretically separated using 10% bicine/tris gel (8 M urea) for proteins less than 5 kD or 10% tricine/tris gels for larger proteins. […]"}, "5XFAD mice [3]": {"system": "5XFAD mice", "test": "Rotarod test, 5XFAD mice", "format": "in vivo, mouse", "details": "100 nmol/kg i.p. daily, 8 weeks, n = 10 per treatment, listed as TAT-APPsweBBP", "method": "(§5) Transgenic AD mice [5XFAD; B6SJL-Tg(APPSwFlLon,PSEN1*M146L*L286V) 6799Vas/Mmjax] at 2.5 months of age were obtained from the Jackson Laboratory (Bar Harbor, ME) and housed and maintained in the Animal Facility of College of Medicine at University of South Florida (USF). The mice at 3.5 months of age were treated with TAT-APPsweBBP, TAT peptide (100 nmol/kg in 100 μL PBS) or PBS (100 μL) daily by intraperitioneal injection (i.p.) for eight consecutive weeks. The mice were subjected to behavioral testing after 8-week treatment and then euthanized for immunohistochemical, WB and ELISA analyses. Animals were housed and maintained at USF and all experiments were in compliance with protocols approved by USF Institutional Animal Care and Use Committee. All methods were performed in accordance with relevant guidelines and regulations.\nThe rotarod task was also performed to exclude the possibility that positive effects of any treatment in RAWM test are due to improvements in sensorimotor ability. Mice were positioned on the rod (diameter 3.6 cm) of the equipment (Rotarod 7650 accelerating model; Ugo Basile, Biological Research Apparatus, Varese, Italy), which was initially set at 1.0 rpm. The rod was then allowed to steadily accelerate up to 40.0 rpm over a 3-min session and evaluation was made by monitoring latency to fall."}, "5XFAD mice [4]": {"system": "5XFAD mice", "test": "WB of APP processing products in brain homogenates, 5XFAD mice", "format": "in vivo, mouse", "details": "8 weeks", "method": "as §5, §3"}, "brain of 5XFAD mice": {"system": "brain of 5XFAD mice", "test": "BBB penetration after i.p. administration (brain section confocal imaging)", "procedure": "5XFAD mice at 2 months of age (n = 5, female) were treated intraperitoneally with biotin-labeled TAT-APPsweBBP or APPsweBBP (100 nmol/kg) daily for 5 days and then euthanized 4 h after the last injection. Brain tissues were removed, sectioned and stained with anti-BACE1 and anti-biotin antibodies.\nFixed cell cultures and brain sections were stained with indicated antibodies and then treated with donkey anti-mouse IgG conjugated with Alexa Fluor 488 (1:200) or goat anti-rabbit IgG conjugated with Alexa Fluor 594 (1:200; Invitrogen, Carlsbad, CA). The slides were then washed, mounted with DAPI medium (Vector Laboratories, Burlingame, CA) and visualized with an Olympus FV1000 confocal microscope (Tokyo, Japan)."}, "[5]": {"details": "*P < 0.05, **P < 0.01, three independent experiments, each triplicated"}, "[6]": {"details": "WB 6E10, listed as TAT-APPsweBBP"}},
  "note": "“Also recorded” adds a separate entry of the source.",
  "data": [
    {"sequence": "YGRKKRRQRRREISEVNLDAEFR", "values": [
      {"measurement": "cleavage by BACE1", "setting": "[1]", "value": "is cleaved by BACE1; also recorded: can also be cleaved"},
      {"measurement": "holo APP expression by WB", "setting": "CHO/APPwt cells", "value": "leaving holo APP expression unaltered"},
      {"measurement": "sAPPα by WB", "setting": "CHO/APPwt cells", "value": "promoting"},
      {"measurement": "Aβ1−40/42 by ELISA", "setting": "CHO/APPwt cells; [5]", "value": "significantly decreased"},
      {"measurement": "sAPPα by ELISA", "setting": "CHO/APPwt cells; [5]", "value": "increased sAPPα levels in a dose-dependent manner"},
      {"measurement": "Aβ by WB", "setting": "CHO/APPwt cells; listed as TAT-APPsweBBP", "value": "markedly decreased Aβs; also recorded: markedly inhibited"},
      {"measurement": "α-CTF by WB", "setting": "CHO/APPwt cells; listed as TAT-APPsweBBP", "value": "increased α-CTF; also recorded: promoting α-CTF"},
      {"measurement": "holo APP expression by WB", "setting": "CHO/APPswe cells", "value": "leaving holo APP expression unaltered"},
      {"measurement": "sAPPα by WB", "setting": "CHO/APPswe cells", "value": "promoting"},
      {"measurement": "β-CTF by WB", "setting": "CHO/APPswe cells", "value": "markedly inhibited"},
      {"measurement": "Aβ1−40/42 by ELISA", "setting": "CHO/APPswe cells; [5]", "value": "significantly decreased"},
      {"measurement": "sAPPα by ELISA", "setting": "CHO/APPswe cells; [5]", "value": "increased sAPPα levels in a dose-dependent manner"},
      {"measurement": "Aβ by WB", "setting": "CHO/APPswe cells; listed as TAT-APPsweBBP", "value": "markedly decreased Aβs; also recorded: markedly inhibited"},
      {"measurement": "intracellular versus extracellular distribution in brain", "setting": "[2]", "value": "higher intracellular TAT-APPsweBBP distribution; also recorded: prefers to enter into cytoplasm of brain cells"},
      {"measurement": "rotarod latency to fall / motor performance", "setting": "5XFAD mice [3]", "value": "no differences between treatment groups on each day; also recorded: tended to enhance motor activity in 5XFAD mice, as shown by increased latency to fall, but this did not reach a statistical level of significance"},
      {"measurement": "total cerebral soluble Aβ (Aβs) by WB", "setting": "5XFAD mice [4]; [6]", "value": "much lower levels; also recorded: reduced total cerebral soluble Aβ"},
      {"measurement": "β-CTF by WB", "setting": "5XFAD mice [4]; [6]", "value": "much lower levels; also recorded: reduced"},
      {"measurement": "band density ratio of β-CTF to holo-APP", "setting": "5XFAD mice [4]; densitometry, versus TAT and PBS, **P < 0.01", "value": "significantly reduces the band density ratios of β-CTF to holo-APP, compared to TAT- and PBS-treatments (**P < 0.01)"},
      {"measurement": "total APP expression by WB", "setting": "5XFAD mice [4]; listed as TAT-APPsweBBP", "value": "without notable alteration on total APP expression; also recorded: without significantly altering total APP expression"},
      {"measurement": "association with BACE1 in brain", "setting": "brain of 5XFAD mice; 5XFAD mice, 2 months, n = 5, female, biotin-labeled peptide 100 nmol/kg i.p. daily 5 days, 4 h after last injection", "value": "more highly associates with BACE1 compared to APPsweBBP"},
      {"measurement": "BBB penetration / brain distribution", "setting": "brain of 5XFAD mice; 5XFAD mice, 2 months, n = 5, female, biotin-labeled peptide 100 nmol/kg i.p. daily 5 days, 4 h after last injection, confocal images, listed as TAT-APPsweBBP", "value": "highly penetrated the BBB and was detectable in both the cortical and hippocampal regions; also recorded: more permeable across the BBB; also recorded: greater distribution of TAT-APPsweBBP than APPsweBBP into cortical and hippocampal regions"},
      {"measurement": "BBB penetration (Fig. S4 legend)", "setting": "brain of 5XFAD mice; peripheral injection, Fig. S4", "value": "freely enters brain microvascular endothelial cells"}
    ]}
  ]
}
